Data taken from patent US6262293A, “ω-Cycloalkly-prostaglandin e2 derivatives” (Ono Pharmaceutical Co., Ltd., priority 1997, dated 2001).
pKi: −log10 of the molar value.

Legend:
Settings in all cases: CHO cell membrane fraction; 2.5 nM 3H-PGE2; pH 6.0; room temperature, 1 hour; more polar stereoisomer
mouse EP1 = target: T1, mouse EP1 (Mus musculus, UniProt P35375); test: Binding assay using expression cell of prostanoids receptor subtype (competition of specific 3H-PGE2 binding), EP1
T1 construct: expressed in transfected cells; host or cells: CHO cells (membrane fraction)
T1 sequence (P35375 1-405): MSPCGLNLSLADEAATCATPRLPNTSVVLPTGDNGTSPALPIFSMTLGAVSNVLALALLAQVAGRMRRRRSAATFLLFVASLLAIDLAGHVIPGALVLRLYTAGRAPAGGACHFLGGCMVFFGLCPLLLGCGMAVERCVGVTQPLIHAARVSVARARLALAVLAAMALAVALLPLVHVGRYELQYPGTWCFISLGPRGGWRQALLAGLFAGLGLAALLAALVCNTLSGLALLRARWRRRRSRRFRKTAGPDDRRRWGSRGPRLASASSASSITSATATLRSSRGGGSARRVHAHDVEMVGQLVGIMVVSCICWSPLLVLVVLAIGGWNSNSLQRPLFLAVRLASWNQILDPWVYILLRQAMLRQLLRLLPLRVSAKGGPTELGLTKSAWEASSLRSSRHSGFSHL
Description: (§1) (i) Binding Assay Using Expression Cell of Prostanoids Receptor Subtype
(§2) The preparation of membrane fraction was carried out according to the method of Sugimoto et. al., [J. Biol. Chem., 267, 6463-6466 (1992)], using expression CHO cell of the prostanoids receptor subtype (mouse EP1, EP2, EP3α, EP4).
(§3) The standard assay mixture containing membrane fraction (0.5 mg/ml) and [^3 H]-PGE2 ([…]) in a final volume of 200 μl was incubated at room temperature for 1 hour. The reaction was terminated by addition of ice-cooled buffer (3 ml). The mixture was filtered through a GF/B glass filter under reduced pressure. The radioactivity associated with the filter was measured by liquid scintillation counter.
(§4) Kd and Bmax values were determined from Scatchard plots [Ann. N. Y. Acad. Sci., 51, 660 (1949)]. Non-specific binding was calculated as the binding in the presence of an excess (2.5 μM) of unlabeled PGE2. In the experiment for competition of specific ^3 H-PGE2 binding by the compounds of the present invention, 2.5 nM of ^3 H-PGE2 and various concentrations of compounds of the present invention were added. The following buffer was used in all reactions.
(§5) Buffer: 10 mM potassium phosphate (pH 6.0), 1 mM EDTA, 10 mM MgCl2, 0.1 M NaCl.
(§6) All the values shown are those obtained using the more polar stereoisomer of the exemplified compounds. The dissociation constant; i.e. Ki (μM) of each compound was calculated by the following equation.

mouse EP2 = target: T2, mouse EP2 (Mus musculus, UniProt Q62053); test: Binding assay using expression cell of prostanoids receptor subtype (competition of specific 3H-PGE2 binding), EP2
T2 construct: expressed in transfected cells; host or cells: CHO cells (membrane fraction)
Description: as §1, §2, §3, §4, §5, §6

mouse EP3α = target: T3, mouse EP3α (Mus musculus, UniProt P30557); test: Binding assay using expression cell of prostanoids receptor subtype (competition of specific 3H-PGE2 binding), EP3α
T3 construct: expressed in transfected cells; host or cells: CHO cells (membrane fraction)
T3 sequence (P30557 1-365): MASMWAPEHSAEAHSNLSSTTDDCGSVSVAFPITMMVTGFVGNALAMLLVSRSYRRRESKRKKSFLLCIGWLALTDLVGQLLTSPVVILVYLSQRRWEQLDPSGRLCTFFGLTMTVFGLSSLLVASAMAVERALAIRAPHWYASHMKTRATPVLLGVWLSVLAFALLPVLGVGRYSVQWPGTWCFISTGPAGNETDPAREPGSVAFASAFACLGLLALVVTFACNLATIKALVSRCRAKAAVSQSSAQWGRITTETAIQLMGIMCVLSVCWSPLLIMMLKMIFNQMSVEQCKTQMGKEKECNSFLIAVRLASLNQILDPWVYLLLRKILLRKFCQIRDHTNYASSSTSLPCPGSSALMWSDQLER
Description: as §1, §2, §3, §4, §5, §6

mouse EP4 = target: T4, mouse EP4 (Mus musculus, UniProt P32240); test: Binding assay using expression cell of prostanoids receptor subtype (competition of specific 3H-PGE2 binding), EP4
T4 construct: expressed in transfected cells; host or cells: CHO cells (membrane fraction)
Description: as §1, §2, §3, §4, §5, §6

T2 sequence (Q62053 whole entry): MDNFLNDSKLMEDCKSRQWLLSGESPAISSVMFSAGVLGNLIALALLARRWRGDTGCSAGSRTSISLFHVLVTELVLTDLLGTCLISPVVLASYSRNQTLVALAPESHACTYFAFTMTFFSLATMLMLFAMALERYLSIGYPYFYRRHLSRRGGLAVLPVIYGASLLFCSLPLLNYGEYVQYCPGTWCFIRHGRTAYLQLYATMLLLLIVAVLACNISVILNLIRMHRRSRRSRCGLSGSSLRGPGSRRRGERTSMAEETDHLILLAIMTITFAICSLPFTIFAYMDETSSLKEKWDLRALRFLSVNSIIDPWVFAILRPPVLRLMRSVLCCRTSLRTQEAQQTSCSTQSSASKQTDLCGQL
T4 sequence (P32240 whole entry): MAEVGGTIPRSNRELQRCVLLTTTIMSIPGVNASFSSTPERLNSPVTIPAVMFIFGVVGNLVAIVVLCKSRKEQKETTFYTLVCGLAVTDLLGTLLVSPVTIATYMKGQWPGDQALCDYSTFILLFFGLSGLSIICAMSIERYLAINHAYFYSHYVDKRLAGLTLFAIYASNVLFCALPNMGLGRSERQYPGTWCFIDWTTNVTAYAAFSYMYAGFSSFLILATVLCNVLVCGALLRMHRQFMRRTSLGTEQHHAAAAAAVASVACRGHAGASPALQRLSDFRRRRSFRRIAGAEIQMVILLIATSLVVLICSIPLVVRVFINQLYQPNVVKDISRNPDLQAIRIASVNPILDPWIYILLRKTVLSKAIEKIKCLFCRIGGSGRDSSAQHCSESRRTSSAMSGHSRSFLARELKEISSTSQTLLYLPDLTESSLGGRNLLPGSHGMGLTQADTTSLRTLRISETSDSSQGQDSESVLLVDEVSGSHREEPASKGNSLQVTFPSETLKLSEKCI

SMILES	pKi (mouse EP1)	pKi (mouse EP2)	pKi (mouse EP3α)	pKi (mouse EP4)
O=C(O)c1ccc(CC[C@H]2C(=O)C[C@@H](O)[C@@H]2/C=C/CC(O)C2(CC3CC3)CCC2)cc1 (single isomer, unassigned) [Example 2(b), (11α,13E)-9-Oxo-11,16-dihydroxy-17,17-propano-19,20-methano-1,6-(p-phenylene)-2,3,4,5-tetranorprost-13-enoic Acid]	< 5.00	8.21	< 5.00	< 5.00
C=CCC1(C(O)C/C=C/[C@H]2[C@H](O)CC(=O)[C@@H]2CCc2ccc(C(=O)O)cc2)CCC1 (single isomer, unassigned) [Example 2(a), (11α,13E)-9-Oxo-11,16-dihydroxy-17,17-propano-1,6-(p-phenylene)-2,3,4,5-tetranorprost-13,19-dienoic Acid]	< 5.00	8.01	< 5.00	< 5.00
C=CCC1(C(O)C/C=C/[C@@H]2[C@@H](CCc3ccc(C(=O)O)cc3)[C@H](Cl)C[C@H]2O)CCC1 (stereo partly drawn) [9(c), (9β,11α,13E) -9-Chloro-11,16-dihydroxy-17,17-propano-1,6-(p-phenylene)-2,3,4,5-tetranorprost-13,19-dienoic acid]	< 5.00	8.29	< 5.00	< 5.00

Further lines, results first:

pKi (mouse EP1)	pKi (mouse EP2)	pKi (mouse EP3α)	pKi (mouse EP4)	SMILES
< 5.00	8.70	< 5.00	6.51	O=C(O)c1ccc(CSC2C(=O)C[C@@H](O)[C@@H]2/C=C/CC(O)C2(CC3CC3)CCC2)cc1 (stereo partly drawn) [Example 5(d), (11α,13E) -9-Oxo-11,16-dihydroxy-17,17-propano-19,20-methano-7-thia-1,6-(p-phenylene)-2,3,4,5-tetranorprost-13-enoic Acid]
< 5.00	7.72	< 5.00	5.82	C=CCC1(C(O)C/C=C/[C@@H]2C(SCc3ccc(C(=O)O)cc3)C(=O)C[C@H]2O)CCC1 (stereo partly drawn) [Example 5(b), (11α,13E)-9-Oxo-11,16-dihydroxy-17,17-propano-7-thia-1,6-(p-phenylene)-2,3,4,5-tetranorprost-13,19-dienoic Acid]
